Laboratory results from patent publication US6716822B2, “Therapeutic agent for ischemia which inhibits apoptosis under ischemic condition” (priority 2000, dated 2004).

How the values were obtained:
Sprague-Dawley rats = experiment: Effect of antibiotics on ischemic cells: rat left anterior descending artery ligature, infarct/ischemic area by Evans blue/TTC staining; type: in vivo; conditions: 45 mg/kg peritoneally, LAD ligature 2 hours
[1] = Acute toxicity test, subcutaneous injection; conditions: mouse, in vivo, sc, male C57BL/6 mice, dead mice counted through 1-7 days
From the text: All antibiotics used in the present invention, except for an aminoglycoside antibiotic of geneticin, were not subject to acute toxicity tests since they have been clinically approved for their safety. In case of geneticin, after subcutaneously injecting geneticin into male C57BL/6 mice, dead mice were counted through 1-7 days.

Compound | AR/LV (percentage of ischemic area per cross-sectional area of heart) (Sprague-Dawley rats) [%] | IS/(IS + AR) (percentage of infarct area per sum of infarct and ischemic area) (Sprague-Dawley rats) [%] | IS/LV (percentage of infarct area per cross-sectional area of heart) (Sprague-Dawley rats) [%] | LD50 [1] [mg/kg]
C[C@H]1c2cccc(O)c2C(=O)C2=C(O)[C@]3(O)C(=O)C(C(N)=O)=C(O)[C@@H](N(C)C)[C@@H]3[C@@H](O)[C@@H]21 [doxycycline] | 41.8 ± 4.3 | 29.3 ± 4.2 | 16.9 ± 2.5 | 
CN[C@@H]1[C@@H](O)[C@@H](O[C@@H]2[C@@H](O)[C@H](O[C@H]3O[C@H]([C@@H](C)O)[C@@H](O)[C@H](O)[C@H]3N)[C@@H](N)C[C@H]2N)OC[C@]1(C)O [geneticin] | 40.0 ± 4.1 | 24.6 ± 2.1 | 12.5 ± 1.8 | ~3800
